Columns and labels:
[1] = tested on: rat uterus; assay: Effects on the rat uterus in vitro; format: cell-based; settings: dose producing response 50% that of carbachol
Method: (B) effect on the rat uterus in vitro;
The uterine stimulant effect of test compounds was determined in segments of uterus obtained from rats (140-160 g) pretreated subcutaneously with 1 mg/kg of diethylstilbesterol 18 hours before the experiment. The tissues were placed in 10 ml chambers filled with de-Jalon solution at 29° C., were aerated and bubbled with 95% O2 and 5% CO2, and were prepared for isometric recording with force displacement transducers. Preparations were stretched to an initial tension of 1 g and were left undisturbed for 30 minutes. Carbachol (1 mcg/ml) was then added to the bath and a response was recorded. After a ten minute interval the carbachol procedure was repeated. Responses to increasing concentrations of a test compound (0.001 to 10 mcg/ml with one log intervals) were then recorded every 10 minutes. Preparations were washed four times after each response. All doses of compounds were administered in a 0.1 ml volume. Because it has been observed that the magnitude of the second response to carbachol (approximately 10% greater than the first) is close to the maximal response of the tissue, such value was taken as a measure of the sensitivity of a particular segment. Responses to each concentration of the test compound were expressed in terms of percentage of the second response to carbachol and the ED50 (dose producing a response 50% that of carbachol) was calculated graphically.
Activity was scored according to the following scale: […]

[2] = tested on: rat colon; assay: Cascade assay: rat colon; format: cell-based; settings: in vitro, smooth muscle stimulant ED50 scored
Method: (§1) (A) effects on the rat stomach, rat colon, chick rectum, and rabbit aorta in vitro (cascade assay);
(§2) The smooth muscle stimulant effects of test compounds were determined simultaneously in four different tissues that are known to be reactive to naturally occurring prostaglandins. Segments of rat stomach fundus, rat colon, chick rectum and rabbit aortic strip were obtained as described by: Vane, J. R., Brit. J. Pharmacol., 12: 344 (1957); Regoli, D. and Vane, J. R., Brit. J. Pharmacol., 23: 351 (1964); Mann, M. and West, G. B., Brit. J. Pharmacol., 5: 173 (1950); and Furchgott, R. F. and Bhadrakom, R., J. Pharmacol. Exper. Ther., 108: 129 (1953). One end of each preparation was tied to the bottom of a 10 ml tissue chamber and the other to a force displacement transducer (Grass FT-03) for continuous tension recording. The stomach, colon, and rectum segments were stretched to an initial tension of 1 g, while the aortic strip was subjected to 4 g. All preparations were left undisturbed for 1 hour prior to testing. […]
(§3) Test compounds were diluted from stock solutions so as to administer quantities ranging from 0.0001 to 100,000 ng in a volume of 0.5 ml. […] Maximal increases in tension after each dose were measured and the results were used to plot dose-response curves. […]
(§4) Activity in each tissue was scored according to the following scale: […]

[3] = tested on: human platelet; assay: Inhibition of human platelet aggregation in vitro; format: cell-based; settings: human platelet rich plasma, collagen-induced
Method: (E) effect on human platelet aggregation in vitro; and
The ability of test compounds to inhibit platelet aggregation was determined by a modification of the turbidometric technique of Born, G. V. R. (Nature, 194: 927 [1962]). Blood was collected from human volunteers, who had not ingested aspirin or aspirin-containing products within the preceding two weeks, in heparinized containers and was allowed to settle for one (1) hour. The platelet rich plasma (prp) supernates were collected and pooled. Siliconized glassware was used throughout.
In a representative assay, 1.9 ml of PRP and 0.2 ml of test compound at the appropriate concentration ([…]), or 0.2 ml of distilled water (control procedure) were placed in sample cuvettes. The cuvettes were placed in a 37° C. incubation block for 15 minutes, and then in a spectrophotometer linked to a strip chart recorder. After 30-60 seconds, 0.2 ml of a solution, prepared by diluting a calf-skin collagen solution 1:9 with Tyrodes' Solution, was added to each cuvette. Platelet aggregation was evidenced by a decrease in optical density.
An ED50 value was then determined graphically.

[4] = tested on: rat; assay: Effects on gastric secretion in the rat; format: in vivo; settings: pylorus ligated, 1.5 mg/kg s.c. twice (total 3.0 mg/kg), 4 hours
Method: (F) effect on gastric secretion in the rat;
A procedure based on that described by Lipman, W. (J. Pharm. Pharmacol., 21: 335 [1968]) was used to assess the influence of test compounds on gastric secretion. Rats of one sex weighing 150 to 200 g were randomly divided into groups of six animals each and fasted for 48 hours previous to the experiments, water being available ad libitum. The animals were anesthetized with ether, the abdomen opened through a midline incision, and the pylorus ligated. Test compounds were diluted from stock solution so as to administer a dose of 1.5 mg/kg in a volume equivalent to 1 ml/kg. Subcutaneous injections were applied immediately after surgery and again 2 hours later, so that a total dose of 3.0 mg/kg was administered. Dilutions were made with phosphate buffer (pH 7.38) as recommended by Lee et al. (Prostaglandins, 3: 29 [1973]) in order to insure adequate stability of drugs at the subcutaneous depot. […]
Four hours after pyllric ligation the animals were killed with ether, the cardias ligated, and the stomachs removed. The volume of gastric secretion was measured and the contents centrifuged at 5000 rpm for 10 minutes. […]
Volume and total acid values of the treated group were compared with those of the controls […]. Antisecretory activity was scored according to the following scale: […]

[5] = tested on: rat stomach fundus; assay: Cascade assay: rat stomach fundus; format: cell-based; settings: in vitro, smooth muscle stimulant ED50 scored
Method: as §1, §2, §3, §4

[6] = tested on: rabbit aortic strip; assay: Cascade assay: rabbit aortic strip; format: cell-based; settings: in vitro, smooth muscle stimulant ED50 scored
Method: as §1, §2, §3, §4

[7] = tested on: chick rectum; assay: Cascade assay: chick rectum; format: cell-based; settings: in vitro, smooth muscle stimulant ED50 scored
Method: as §1, §2, §3, §4

[8] = tested on: adrenal glands; settings: hypophysectomized rats; cited from earlier work
[9] = tested on: growth hormone; settings: rats; cited from earlier work
[10] = tested on: tracheal smooth muscle; settings: in vitro, most mammalian respiratory tracts; cited from earlier work
[11] = tested on: female reproductive system; settings: cited from earlier work; for labor / abortion effect: inducing labor, early pregnancy
[12] = tested on: motor pathways in the central nervous system; settings: cited from earlier work

Question: Which “Rat Uterus: activity value (ED50)” value [1] does the source give for `CCCCC[C@@H](O)/C(=C/C1CCC(=O)C1C/C=C\CCCC(=O)OC)c1ccccc1` (mixture of isomers) [Example 8, Methyl dl-14-phenyl-15R-hydroxy-9-oxoprosta-5,13E-dien-1-oate] here?
Answer: 0 (>10)

Question: With `CCCCC[C@H](O)/C(=C/C1CCC(=O)C1C/C=C\CCCC(=O)OC)c1ccccc1` (mixture of isomers) [Example 9, Methyl dl-14-phenyl-15S-hydroxy-9-oxoprosta-5Z,13E-dien-1-oate] as the compound, how does the “Rat Uterus: activity value (ED50)” value [1] read?
Answer: 0 (>10)

Question: Which “Rat Uterus: activity value (ED50)” value [1] does the source give for `CCCCC[C@H](O)/C(=C/C1CCC(=O)C1C/C=C\CCCC(=O)O)c1ccccc1` (mixture of isomers) [Example 10, dl-14-Phenyl-15S-hydroxy-9-oxoprosta-5Z,13E-dien-1-oic acid] here?
Answer: 0 (>10)

Question: For `CCCCC[C@@H](O)/C(=C/C1CCC(=O)C1C/C=C\CCCC(=O)O)c1ccccc1` (mixture of isomers) [Example 11, dl-14-Phenyl-15R-hydroxy-9-oxoprosta-5Z-13E-dien-1-oic acid], which “Rat Uterus: activity value (ED50)” value [1] is on record?
Answer: 0 (>10)

Question: For `CCCCCC(O)/C(=C/C1CCC(=O)C1CCCCCCC(=O)OC)c1ccccc1` (racemic) [Example 5, Methyl dl-14-phenyl-15R,S-hydroxy-9-oxoprost-13E-en-1-oate], which “Rat Uterus: activity value (ED50)” value [1] is on record?
Answer: 0 (>10)

Question: Which “Rat Uterus: activity value (ED50)” value [1] does the source give for `CCCCC[C@H](O)/C(=C/[C@H]1[C@H](O)CC(=O)[C@@H]1CCCCCCC(=O)O)c1ccccc1` [Example 2, 14-Phenyl-11α,15S-dihydroxy-9-oxoprost-13E-en-1-oic acid] here?
Answer: 0 (>10)

Question: For `CCCCC[C@@H](O)/C(=C/[C@H]1[C@H](O)CC(=O)[C@@H]1CCCCCCC(=O)O)c1ccccc1` [Example 3, 14-phenyl-11α,15R-dihydroxy-9-oxoprost-13E-en-1-oic acid], which “Rat Uterus: activity value (ED50)” value [1] is on record?
Answer: 0 (>10)

Question: For `CCCCC[C@H](O)/C(=C/[C@H]1[C@H](O)CC(=O)[C@@H]1C/C=C\CCCC(=O)OCC)c1ccccc1` [Example 7B, Ethyl-14-Phenyl-11α,15S-dihydroxy-9-oxoprosta-5Z-13E-dien-1-oate], which “Rat Uterus: activity value (ED50)” value [1] is on record?
Answer: 0 (>10)

Question: For `CCCCC[C@@H](O)/C(=C/C1C=CC(=O)C1CCCCCCC(=O)O)c1ccccc1` (stereo partly drawn) [Example 12, 14-Phenyl-15R-hydroxy-9-oxo-ent-prosta-10,13E-dien-1-oic acid], which “Cascade, Colon: activity value (ED50)” value [2] is on record?
Answer: 0 (>10000)

Question: What about the “Rat Uterus: activity value (ED50)” value [1] of the same compound?
Answer: 0 (>10)

Question: And the “Platelet Aggregation: activity value (ED50)” value [3]?
Answer: 1 (>0.1 and ≤1.0)

Question: What about the “Gastric Secretion: activity value (% decrease in acidity)” value [4] of the same compound?
Answer: 0 (<26)

Question: And the “Cascade, Stomache: activity value (ED50)” value [5]?
Answer: 0 (>10000)

Question: What about the “Cascade, Aorta: activity value (ED50)” value [6] of the same compound?
Answer: 0 (>10000)

Question: And the “Cascade, Rectum: activity value (ED50)” value [7]?
Answer: 0 (>10000)

Question: With `CCCCCC(O)/C(=C/[C@@H]1[C@@H](C/C=C\CCCC(=O)O)[C@@H](O)C[C@H]1O)c1ccccc1` (stereo partly drawn) [Example 14, 14-Phenyl-9α,11α,15R,S-trihydroxyprosta-5Z,13E-dien-1-oic acid] as the compound, how does the “Rat Uterus: activity value (ED50)” value [1] read?
Answer: 0 (>10)

Question: Which “steroidogenesis in the adrenal glands” value [8] does the source give for `CCCCC[C@H](O)/C=C/[C@H]1[C@H](O)CC(=O)[C@@H]1C/C=C\CCCC(=O)O` [PGE2] here?
Answer: stimulate stereoidogenesis in the adrenal glands

Question: What about the “release of the growth hormone” value [9] of the same compound?
Answer: increase the release of the growth hormone

Question: And the “effect on tracheal smooth muscle” value [10]?
Answer: relax

Question: And the “labor / abortion effect” value [11]?
Answer: produces potent oxytocic effects in inducing labor

Question: With `CCCCC[C@H](O)/C=C/[C@@H]1[C@@H](C/C=C\CCCC(=O)O)[C@@H](O)C[C@H]1O` [PGF2α] as the compound, how does the “transmission along motor pathways in the central nervous system” value [12] read?
Answer: facilitates transmission along motor pathways in the central nervous system

Question: And the “effect on tracheal smooth muscle” value [10]?
Answer: contracts such smooth muscle

Question: What about the “fertility / gestation effect” value ([11]; female reproductive system) of the same compound?
Answer: has contragestational effects

Question: And the “labor / abortion effect” value [11]?
Answer: induces spontaneous abortions in early pregnancy
